Here are results for one compound from patent publication US11534446B2, “Pharmaceutical composition comprising 3-beta-hydroxy-5-alpha-pregnan-20-one with improved storage and solubility properties” (ASARINA PHARMA AB, priority 2010, dated 2022).

This series is described as follows: UC1010 concentration in 0.2 μm filtrate of suspensions in sesame oil with cholesterol (Example 77). As to conditions: sesame oil suspension. In kind it is physicochemical. As to the method: Suspensions of 3-beta-hydroxy-5-alpha-pregnan-20-one were prepared for investigation of solubility as follows: cholesterol was first dissolved at room temperature in sesame oil at 10 and 20 mg/ml, respectively. Suspensions of 3-beta-hydroxy-5-alpha-pregnan-20-one in sesame oil with different amounts of cholesterol were prepared on a magnetic stirrer at about 500 rpm using a conventional Teflon coated stir bar, at room temperature for several days, with occasional cycling to 2-8° C. At this time, the particles have become substantially smaller. Thereafter, samples of the respective suspensions were filtered through a 0.2 μm filter and analyzed with regard to concentration of 3-beta-hydroxy-5-alpha-pregnan-20-one. The results are presented in Table 3 and FIG. 2 where it can be seen that increasing the amounts of cholesterol increases the soluble fraction of 3-beta-hydroxy-5-alpha-pregnan-20-one. […] FIGS. 3a and 3b show microscopy pictures taken at 5× enlargement of suspensions with a 3-beta-hydroxy-5-alpha-pregnan-20-one concentration of 10 mg/g and a cholesterol:3-beta-hydroxy-5-alpha-pregnan-20-one ratio of 1:1 immediately upon mixing (3a) and after several days of stirring (3b).

In the case of `CC(=O)[C@H]1CC[C@H]2[C@@H]3CC[C@H]4C[C@@H](O)CC[C@]4(C)[C@H]3CC[C@]12C` [3-beta-hydroxy-5-alpha-pregnan-20-one], the “3-beta-hydroxy-5-alpha-pregnan-20-one concentration in filtrate” value was 1 mg/mL (initial concentration 10 mg/g, weight ratio cholesterol to UC1010 0:1, 0.2 μm filter); 1.8 mg/mL (initial concentration 10 mg/g, weight ratio cholesterol to UC1010 1:1, 0.2 μm filter); 2.2 mg/mL (initial concentration 10 mg/g, weight ratio cholesterol to UC1010 2:1, 0.2 μm filter); 1.9 mg/mL (initial concentration 40 mg/g, weight ratio cholesterol to UC1010 1:2, 0.2 μm filter); 1.4 mg/mL (initial concentration 40 mg/g, weight ratio cholesterol to UC1010 1:4, 0.2 μm filter).
